Results on nine compounds are retold here after patent EP0514133A1, “Benzodiazepine derivatives, compositions containing them and their use in therapy” (priority 1991, dated 1992).

pIC50: −log10 of the molar value. Read-outs that look alike come from different tables or passages of the source.

Assay [1] has as its target T1, CCK receptor (brain, cortex) (Cavia porcellus, UniProt H0VZC5).
T1 construct: the cortex was removed and homogenized in 25 mL ice-cold 0.32 M sucrose; from tissue; host or cells: guinea pig brain cortex P2 membrane pellet
T1 sequence (H0VZC5 1-426): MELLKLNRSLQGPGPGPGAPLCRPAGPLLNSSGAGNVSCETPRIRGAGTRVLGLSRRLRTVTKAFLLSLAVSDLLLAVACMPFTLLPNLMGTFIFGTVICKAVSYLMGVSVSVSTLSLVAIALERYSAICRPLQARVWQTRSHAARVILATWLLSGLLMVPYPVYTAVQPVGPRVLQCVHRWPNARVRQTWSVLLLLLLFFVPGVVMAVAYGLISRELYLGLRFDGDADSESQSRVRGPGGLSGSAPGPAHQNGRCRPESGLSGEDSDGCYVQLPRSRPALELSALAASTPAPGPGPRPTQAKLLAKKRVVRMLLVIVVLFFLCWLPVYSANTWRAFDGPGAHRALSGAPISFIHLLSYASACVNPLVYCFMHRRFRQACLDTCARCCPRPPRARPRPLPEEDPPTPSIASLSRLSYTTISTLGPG
Put plainly: biochemical. The assay is classed as binding, guinea pig. The method, then:
CCK-8 sulphated was radiolabelled and the binding was performed according to the description for the pancreas method with minor modifications.
Male Hartley guinea pigs (300-500g) were sacrificed by decapitation and the cortex was removed and homogenized in 25 mL ice-cold 0.32 M sucrose. The homogenates were centrifuged at 1000 g for 10 minutes and the resulting supernatant was recentrifuged at 20,000 g for 20 minutes. The P₂ pellet was resuspended in binding assay buffer (20mM HEPES, 5 mM MgCl₂, 0.25 mg/ml bacitracin, 1 mM EGTA pH 6.5 at 25°C), using a Teflon (trademark) homogenizer (5 strokes at 500 rpm) to give a final concentration of 10 mg original wet weight/1.2 ml buffer. […] All assays were run in duplicate. The reaction mixtures were incubated at 25°C for 2 hours and then the reaction was terminated by rapid filtration (Brandell 24 well cell harvester) on Whatman GF/C filters with 3 x 5 ml washes of cold 100 mM NaCl. The radioactivity on the filters was counted with a LKB gamma counter.
(§1) Drug displacement studies were performed with at least 10 concentrations of compounds of Formula I and the IC₅₀ values were determined by regression analysis IC₅₀ refers to the concentration of the compound required to inhibit 50% of specific binding of ¹²⁵I-CCK-8.

The next assay concerns the target T2, Gastrin Receptor (Cavia porcellus, UniProt H0VZC5).
T2 sequence (H0VZC5 1-426): T1 sequence (H0VZC5 1-426)
Put plainly: Gastrin Receptor Binding in Guinea Pig Gastric Glands, 125I-gastrin. On the set-up: from tissue; host or cells: isolated guinea pig gastric mucosal glands. The conditions noted are these: 0.1 nM 125I-gastrin, 25°C 30 minutes. The method, then: Gastrin antagonist activity of compounds of Formula I was determined using the following assay.
Guinea pig gastric mucosal glands were prepared by the procedure of Chang et. al., Science, 230, 177-179 (1985) with slight modifications. […] The tissues were passed twice through a 5 ml syringe to liberate the gastric glands, and then filtered through Nitex (trademark) #202 gauge nylon mesh. The filtered glands were centrifuged at 272 g for 5 minutes and washed twice by resuspension in 25 ml buffer and centrifugation.
The washed guinea pig gastric glands prepared as above were resuspended in 25 ml of standard buffer. For binding studies, to 250 µl of gastric glands, 30 µl of buffer (for total binding) or gastrin (3 µM final concentration, for nonspecific binding) or test compound and 20 µl of ¹²⁵I-gastrin (NEN, 2200 Ci/mmole, 0.1 nM final concentration) were added. All assays were run in triplicate. […] The reaction mixtures, after incubation at 25°C for 30 minutes in a shaking water bath were rapidly filtered (Brandell 24 well cell harvester) over Whatman G/F B filters presoaked in assay buffer and immediately washed further with 3 x 4 ml of 100 mM ice cold NaCl. The radioactivity on the filters was measured using a LKB gamma counter.

The target of another assay is T3, CCK receptor (pancreas) (Rattus norvegicus, UniProt P30551).
T3 construct: The whole pancreas was dissected free of fat tissue and was homogenized; from tissue; host or cells: rat pancreas membrane homogenate
T3 sequence (P30551 1-444): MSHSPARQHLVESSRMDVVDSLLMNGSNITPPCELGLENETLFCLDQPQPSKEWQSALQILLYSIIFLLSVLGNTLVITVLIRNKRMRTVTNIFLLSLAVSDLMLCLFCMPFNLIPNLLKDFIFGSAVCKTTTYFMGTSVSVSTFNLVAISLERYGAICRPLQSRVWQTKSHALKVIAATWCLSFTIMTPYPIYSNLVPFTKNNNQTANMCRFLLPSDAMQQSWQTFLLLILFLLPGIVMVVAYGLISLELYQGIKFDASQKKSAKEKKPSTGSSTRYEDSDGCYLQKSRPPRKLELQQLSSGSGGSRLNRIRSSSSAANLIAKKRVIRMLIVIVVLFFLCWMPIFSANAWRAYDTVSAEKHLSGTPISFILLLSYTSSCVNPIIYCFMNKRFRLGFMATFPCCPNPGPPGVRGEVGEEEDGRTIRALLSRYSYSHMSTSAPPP
Kind of assay: biochemical. The class given is binding. The conditions noted are these: rat pancreas membranes; for pIC50: 50 pM 125I-CCK-8, 25°C 2 hours. As for the experimental part: CCK-8 sulphated was radiolabelled with ¹²⁵I-Bolton Hunter reagent (2000 Ci/mmole). Receptor binding was performed according to Chang and Lotti (Proc. Natl. Acad. Sci. 83, 4923-4926, 1986) with minor modifications.
Male Sprague-Dawley rats (150-200g) were sacrificed by decapitation. The whole pancreas was dissected free of fat tissue and was homogenized in 25 volumes of ice-cold 10 mM N-2-hydroxyethyl-piperazine-N′-2-ethane sulphonic acid (HEPES) buffer with 0.1% soya bean trypsin inhibitor (pH 7.4 at 25°C) with a Kinematica Polytron. The homogenates were centrifuged at 47,800 g for 10 min. Pellets were resuspended in 10 volumes of binding assay buffer (20mM (HEPES)), 1mM ethylene glycol-bis-(β-aminoethylether-N,N′-tetraacetic acid) (EGTA), 5mM MgCl₂, 150 mM NaCl, bacitracin 0.25 mg/ml, soya bean trypsin inhibitor 0.1 mg/ml, and bovine serum albumin 2 mg/ml pH 6.5 at 25°C) using a Teflon (trademark) homogenizer, 15 strokes at 500 rpm. The homogenate was further diluted in binding assay buffer to give a final concentration of 0.5 mg original wet weight/1 ml buffer. […] All assays were run in duplicate. The reaction mixtures were incubated at 25°C for 2 hours and the reaction terminated by rapid filtration (Brandell 24 well cell harvester) over Whatman GF/C filters, washing 3 x 4 mls with ice-cold 100 Mm NaCl. The radioactivity on the filters was counted with a LKB gamma counter.
as §1

The mark [2] stands for this setting: guinea pig cortex membranes, 50 pM 125I-CCK-8, 25°C 2 hours, read-out: IC50 ^125I-CCK Brain.

What is called pIC50 is the negative decadic logarithm of the IC50, by convention in mol/L. Turning to `Cc1cccc(NC(=O)NC2N=C(C3CCCCC3)c3ccccc3N(C)C2=O)c1` (racemic) [Example 1, N-[3(R,S)-5-Cyclohexyl-2,3-dihydro-1-methyl-2-oxo-1H-1,4-benzodiazepin-3-yl] N′-[3-methylphenyl] urea], the pIC50 is 8.66 in assay [1] (setting [2]) and 9.08 on Gastrin Receptor.

For `CN1C(=O)C(NC(=O)Nc2cccc(-c3nn[nH]n3)c2)N=C(C2CCCCC2)c2ccccc21` (racemic) [Example 4, N-[3(R,S)-5-Cyclohexyl-2,3-dihydro-1-methyl-2-oxo-1H-1,4-benzodiazepin-3-yl] N′-[3-tetrazol-5-ylphenyl]urea], the pIC50 was 10.05 in assay [1] (setting [2]), 9.36 on Gastrin Receptor and 7.96 against CCK receptor (pancreas).

On to `CC(=O)NS(=O)(=O)c1cccc(NC(=O)NC2N=C(C3CCCCC3)c3ccccc3N(C)C2=O)c1` (racemic) [Example 15, N-[3(R,S)-5-Cyclohexyl-2,3-dihydro-1-methyl-2-oxo-1H-1,4-benzodiazepin-3-yl] N′-[3-(methylcarbonylaminosulphonyl)phenyl] urea], for which the pIC50 in assay [1] is 9.40; on Gastrin Receptor it was 8.97; against CCK receptor (pancreas) it was 7.70.

With `CN1C(=O)C(NC(=O)Nc2cccc(S(=O)(=O)NC(=O)C(F)(F)F)c2)N=C(C2CCCCC2)c2ccccc21` (racemic) [Example 17, N-[3(R,S)-5-Cyclohexyl-2,3-dihydro-1-methyl-2-oxo-1H-1,4-benzodiazepin-3-yl] N′-[3-(trifluoromethylcarbonylaminosulphonyl)phenyl] urea], the pIC50 was 9.05 in assay [1] (setting [2]), 7.98 at Gastrin Receptor and 6.86 on CCK receptor (pancreas).

`CCN1C(=O)C(NC(=O)Nc2cccc(S(=O)(=O)NC(C)=O)c2)N=C(C2CCCC2)c2ccccc21` (racemic) [Example 20, N-[3(R,S)-5-Cyclopentyl-2,3-dihydro-1-ethyl-2-oxo-1H-1,4-benzodiazepin-3-yl] N′-[3-(methylcarbonylaminosulphonyl)phenyl] urea]: the pIC50 in assay [1] (setting [2]) is 8.85; at Gastrin Receptor, 8.75; against CCK receptor (pancreas) it was 6.02.

In the case of `Cc1cccc(NC(=O)NC2N=C(C3CCCCC3)c3ccccc3N(C)C2=O)c1` (single isomer, unassigned) [7 (Peak A)], the pIC50 is 9.33 in assay [1] (setting [2]) and 9.04 at Gastrin Receptor.

Take `CC(C)S(=O)(=O)NC(=O)c1cccc(NC(=O)NC2N=C(C3CCCCC3)c3ccccc3N(C)C2=O)c1` (single isomer, unassigned) [24 (Peak A)]: the pIC50 is 9.15 on Gastrin Receptor and 5.93 against CCK receptor (pancreas).

In general, inhibition refers to how much of the control response was suppressed. In the case of `CN1C(=O)[C@H](NC(=O)Nc2cccc(C(=O)NS(=O)(=O)c3ccccc3)c2)N=C(C2CCCCC2)c2ccccc21` [Example 27, (-)-N-[3(R)-5-Cyclohexyl-2,3-dihydro-1-methyl-2-oxo-1H-1,4-benzodiazepin-3-yl] N′-[3-(phenylsulphonylaminocarbonyl)phenyl]urea], the pIC50 in assay [1] was 9.42; on Gastrin Receptor, 8.87. The inhibition at 3 µM on CCK receptor (pancreas) (at 3μM, read-out: inhibition of ^125I-CCK binding, Pancreas) was 19%.

With “N-(3(R,S)-5-Cyclopentyl-2,3-dihydro-1-methyl-2-oxo-1H-1,4-benzodiazepin-3-yl] N′-[3-(1,1-dimethylethylsulphonylaminocarbonyl)phenyl] urea [Example 39]”, the pIC50 in assay [1] (setting [2]) was 9.25; at Gastrin Receptor, 8.93; against CCK receptor (pancreas), 6.57.
